Series [1] deals with T1, HCV polymerase (NS5B570n-Con1) (Hepatitis C virus genotype 1b, UniProt Q9WMX2).
T1 construct: contains a 21 amino acid deletion at the C-terminus relative to the full-length HCV polymerase; 6-histidine (N); made in house; host or cells: E. coli BL21(DE) pLysS, plasmid pET17b
The series is described as follows: biochemical. Further details: species or system HCV Con1 strain. How it is done:
HCV NS5B RNA Polymerase Activity
The enzymatic activity of HCV polymerase (NS5B570n-Con1) was measured as the incorporation of radiolabeled nucleotide monophosphates into acid insoluble RNA products. Unincorporated radiolabeled substrate was removed by filtration and scintillant was added to the washed and dried filter plate containing radiolabeled RNA product. The amount of RNA product generated by NS5B570-Con1 at the end of the reaction was directly proportional to the amount of light emitted by the scintillant.
The N-terminal 6-histidine tagged HCV polymerase, derived from HCV Con1 strain, genotype 1b (NS5B570n-Con1) contains a 21 amino acid deletion at the C-terminus relative to the full-length HCV polymerase and was purified from E. coli strain BL21(DE) pLysS. The construct, containing the coding sequence of HCV NS5B Con1 (GenBank accession number AJ242654) was inserted into the plasmid construct pET17b, downstream of a T7 promoter expression cassette and transformed into E. coli. A single colony was grown overnight as a starter culture and later used inoculate 10 L of LB media supplemented with 100 μg/mL ampicillin at 37° C. Protein expression was induced by the addition of 0.25 mM isopropyl-β-D-thiogalactopyranoside (IPTG) when optical density at […] of the culture was between 0.6 and 0.8 and cells were harvested after 16 to 18 h at 30° C. NS5B570n-Con1 was purified to homogeneity using a three-step protocol including subsequent column chromatography on Ni-NTA, SP-Sepharose HP and Superdex 75 resins.
Data was analyzed in Excel® (Microsoft®) and ActivityBase® (idbs®). The reaction in the absence of enzyme was used to determine the background signal, which was subtracted from the enzymatic reactions. […] All data was expressed as a percentage of the positive control.
the data where “Y” corresponds to the relative enzyme activity (in %), “% Min” is the residual relative activity at saturating compound concentration, “% Max” is the relative maximum enzymatic activity, “X” corresponds to the compound concentration, and “S” is the Hill coefficient (or slope).

The nature of a further series: in vitro. The following applies: human.
Series [2] deals with genotype 1b HCV replicon in Huh7 cell line 2209-23. The series is described as follows: HCV replicon assay (Renilla luciferase reporter). The class given is cell-based. The following applies: Hepatitis C virus, Huh-7, 72 h; 2209-23 cells, three days incubation, luciferase readout. For orientation: Replicon systems follow genome replication, usually without infectious particles.

The test system of the next series is HCV. The following applies: cited from earlier work.

Molecules are shown by their SMILES.

For orientation: melting point means the temperature of the solid-liquid transition. The IC50 is the concentration that gives 50% inhibition. A higher IC50 goes with weaker potency in that assay. The molecule `COc1c(-c2cc3ccccc3c(=O)o2)cc(-c2ccc[nH]c2=O)cc1C(C)(C)C` [Compound I-7, 3-[3-tert-Butyl-4-methoxy-5-(1-oxo-1H-isochromen-3-yl)-phenyl]-1H-pyridin-2-one] showed a melting point of 253 to 255 °C. Also, it took 2 nM to reach half-maximal inhibition in series [1] (IC50).
The matching figures for `COc1c(-c2cc3ccc(NS(C)(=O)=O)cc3c(=O)o2)cc(-c2cc(F)c[nH]c2=O)cc1C(C)(C)C` [Compound I-6, N-{3-[3-tert-Butyl-5-(5-fluoro-2-oxo-1,2-dihydro-pyridin-3-yl)-2-methoxy-phenyl]-1-oxo-1H-isochromen-7-yl}-methanesulfonamide]: 295 to 297 °C and 3 nM.
In the same order, the values of `COc1c(-c2cc3ccc(NS(C)(=O)=O)cc3c(=O)o2)cc(-c2c[nH]c(=O)[nH]c2=O)cc1C(C)(C)C` [Compound I-14, N-{3-[3-tert-Butyl-5-(2,4-dioxo-1,2,3,4-tetrahydro-pyrimidin-5-yl)-2-methoxy-phenyl]-1-oxo-1H-isochromen-7-yl}-methanesulfonamide] are above 300 °C and 1 nM.
Molecule `COc1c(-c2cc3ccccc3c(=O)[nH]2)cc(-c2ccc[nH]c2=O)cc1C(C)(C)C` displayed a melting point of 138 to 140 °C.
In the case of `COc1c(C2=CCc3cc(NS(C)(=O)=O)ccc3O2)cc(-c2ccc[nH]c2=O)cc1C(C)(C)C` [Compound I-2, N-{2-[3-tert-Butyl-2-methoxy-5-(2-oxo-1,2-dihydro-pyridin-3-yl)-phenyl]-4H-chromen-6-yl}-methanesulfonamide], the IC50 in series [1] was determined as 14 nM.
For the molecule `COc1c(-c2nc3ccc(NS(C)(=O)=O)cc3c(=O)[nH]2)cc(-c2ccc[nH]c2=O)cc1C(C)(C)C` [Compound I-13, N-{2-[3-tert-Butyl-2-methoxy-5-(2-oxo-1,2-dihydro-pyridin-3-yl)-phenyl]-4-oxo-3,4-dihydro-quinazolin-6-yl}-methanesulfonamide], the melting point lay within 228 to 230 °C. The molecule further came in with an IC50 in series [1] of 9 nM.
In the same order, the values of `COc1c(C2Cc3ccc(NS(C)(=O)=O)cc3CO2)cc(-c2ccc[nH]c2=O)cc1C(C)(C)C` (centres unmarked) [Compound I-10, N-{3-[3-tert-Butyl-2-methoxy-5-(2-oxo-1,2-dihydro-pyridin-3-yl)-phenyl]-isochroman-7-yl}-methanesulfonamide] are 170 to 175 °C and 1 nM.
`COc1c(-c2cc3ccc(NS(C)(=O)=O)cc3c(=O)[nH]2)cc(-c2ccc[nH]c2=O)cc1C(C)(C)C` [Compound I-11, N-{3-[3-tert-Butyl-2-methoxy-5-(2-oxo-1,2-dihydro-pyridin-3-yl)-phenyl]-1-oxo-1,2-dihydro-isoquinolin-7-yl}-methanesulfonamide] registered a melting point of 252 to 254 °C. The CC50 in the series “in vitro” amounted to 42600 nM. Further, the IC50 in series [2] stood at 1 nM. Besides, the IC50 in series [1] turned out to be 4 nM.
Molecule `CC(C)(C)c1cc(-c2cc3ccc(NS(C)(=O)=O)cc3c(=O)o2)cc(-c2ccc[nH]c2=O)c1` [Compound I-5, N-{3-[3-tert-Butyl-5-(2-oxo-1,2-dihydro-pyridin-3-yl)-phenyl]-1-oxo-1H-isochromen-7-yl}-methanesulfonamide] yielded a melting point above 300 °C. In addition, the half-maximal inhibitory concentration (IC50) in series [1] was 9 nM.
The matching figures for `COc1c(-c2cc(=O)c3cc(NS(C)(=O)=O)ccc3o2)cc(-c2ccc[nH]c2=O)cc1C(C)(C)C` [Compound I-1, N-{2-[3-tert-Butyl-2-methoxy-5-(2-oxo-1,2-dihydro-pyridin-3-yl)-phenyl]-4-oxo-4H-chromen-6-yl}-methanesulfonamide]: above 300 °C and 3 nM.
In the case of `COc1ccc(-c2cc(-c3cc4ccc(NS(C)(=O)=O)cc4c(=O)o3)c(OC)c(C(C)(C)C)c2)c(=O)[nH]1`, the melting point fell in the range of 231 to 233 °C.
Consider `COc1c(C2CCc3cc(NS(C)(=O)=O)ccc3O2)cc(-c2ccc[nH]c2=O)cc1C(C)(C)C` (centres unmarked) [Compound I-3, N-{2-[3-tert-Butyl-2-methoxy-5-(2-oxo-1,2-dihydro-pyridin-3-yl)-phenyl]-chroman-6-yl}-methanesulfonamide], for which the IC50 in series [1] came to 1 nM.
The same measure, in the same setting: to `COc1c(-c2cc3ccc(NS(C)(=O)=O)cc3c(=O)o2)cc(-c2cc(F)c[nH]c2=O)cc1C1(C(F)F)CC1` [Compound I-15] belongs 0.2 nM.
Same read-out and setting: to `COc1c(C2Cc3ccc(NS(C)(=O)=O)cc3C(=O)O2)cc(-c2ccc[nH]c2=O)cc1C(C)(C)C` (centres unmarked) [Compound I-9, N-{3-[3-tert-Butyl-2-methoxy-5-(2-oxo-1,2-dihydro-pyridin-3-yl)-phenyl]-1-oxo-isochroman-7-yl}-methanesulfonamide] belongs 6 nM.
As to `NC(=O)c1ncn([C@@H]2O[C@H](CO)[C@@H](O)[C@H]2O)n1` [Ribavirin, 1-((2R,3R,4S,5R)-3,4-Dihydroxy-5-hydroxymethyl-tetrahydro-furan-2-yl)-1H-[1,2,4]triazole-3-carboxylic acid amide], in the series with HCV (monotherapy / sole treatment), the “effect on serum levels of HCV-RNA” value is on record as “does not lower serum levels of HCV-RNA”. Besides, in the series on HCV (monotherapy), the “patients with serum amino transferase levels reduced to normal” value is 40%.
